# Reference: patent US11998596B2 (priority 2019, dated 2024)
# System: PBMCs from ASF-convalescent animals
# Type: cell-based, pig
sequence,measurement,value
NSTLVIRI,Responding animals (%),4/20 (20%)
same,Responding animals (responders/tested),4/20 (20%)
